In brackets after ≈: the same amount, converted by molar mass. Where two headings read alike, the source gives them in different places.
Key:
[1] = target: T1, MnaA (Staphylococcus aureus, UniProt Q9REV4); experiment: X-ray crystal structure, […] Å; assay type: binding; details: 4 mM Na2UDP added; one UDP per chain; also co-purified with the protein
T1 construct: MnaA-His6 in the activity assays; purification in supplement (S1 Text); dimer in crystal; residues from 376 to the C-terminus not modelled
T1 sequence (Q9REV4 entry or part of it): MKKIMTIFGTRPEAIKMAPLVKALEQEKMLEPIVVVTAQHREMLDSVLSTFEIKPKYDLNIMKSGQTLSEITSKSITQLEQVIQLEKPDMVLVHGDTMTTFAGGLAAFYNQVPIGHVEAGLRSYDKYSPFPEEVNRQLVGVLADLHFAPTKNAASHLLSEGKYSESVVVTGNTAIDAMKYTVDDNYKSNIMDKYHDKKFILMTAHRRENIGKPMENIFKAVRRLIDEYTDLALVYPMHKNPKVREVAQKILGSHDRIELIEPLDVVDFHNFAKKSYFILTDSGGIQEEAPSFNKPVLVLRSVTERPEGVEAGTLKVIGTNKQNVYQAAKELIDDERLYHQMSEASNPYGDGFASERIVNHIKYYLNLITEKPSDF

[2] = test system: T2, Staphylococcus aureus MRSA COL; experiment: microbe, parasite or virus in culture; design: minimum inhibitory concentration of antibiotics against staphylococcal strains
T2 construct: COL (MRSA), parental wild type
Description: (§1) Minimum inhibitory concentrations (MIC; μg ml^-1) of β-lactams imipenem (IPM), nafcillin (Naf), and dicloxacillin (Dic) are provided. […] To directly evaluate the consequence of these mnaA mutations, WTA of the corresponding mutants was extracted and polymer levels visualized on an alcian blue-silver stained SDS PAGE gel (Fig 3A and S1 Fig).

[3] = test system: T3, Staphylococcus epidermidis MRSE CLB26329; experiment: microbe, parasite or virus in culture; design: minimum inhibitory concentration of antibiotics against staphylococcal strains
T3 construct: CLB26329 (MRSE), parental wild type
Description: as §1

[4] = test system: CC(=O)N[C@@H]1[C@@H](OP(=O)(O)OP(=O)(O)OC[C@H]2O[C@@H](n3ccc(=O)[nH]c3=O)[C@H](O)[C@@H]2O)O[C@H](CO)[C@@H](O)[C@@H]1O; experiment: purified protein; details: reverse reaction, 10 mM NaPi, 50 mM NaCl, pH 8.0, 30°C, MnaA-His6
[5] = test system: CC(=O)N[C@H]1[C@@H](OP(=O)(O)OP(=O)(O)OC[C@H]2O[C@@H](n3ccc(=O)[nH]c3=O)[C@H](O)[C@@H]2O)O[C@H](CO)[C@@H](O)[C@@H]1O; experiment: purified protein; details: forward reaction, 10 mM NaPi, 50 mM NaCl, pH 8.0, 30°C, MnaA-His6
[6] = read-out: MIC (µg ml-1) / Vanco

O=c1ccn([C@@H]2O[C@H](COP(=O)(O)OP(=O)(O)O)[C@@H](O)[C@H]2O)c(=O)[nH]1 [UDP]
X-ray crystal structure, 1.9 Å [1]: The model also contains one molecule of UDP per chain

Cc1onc(-c2c(Cl)cccc2Cl)c1C(=O)N[C@@H]1C(=O)N2[C@@H]1SC(C)(C)[C@@H]2C(=O)O [dicloxacillin]
MIC ([2]; read-out: MIC (µg ml-1) / Dic): > 64 µg/mL
MIC ([3]; read-out: MIC (µg ml-1) / Dic): > 64 µg/mL

C[C@@H](O)[C@H]1C(=O)N2C(C(=O)O)=C(SCCNC=N)C[C@H]12 [imipenem]
MIC ([2]; read-out: MIC (µg ml-1) / IPM): 32 µg/mL (≈ 107 µM)
MIC ([3]; read-out: MIC (µg ml-1) / IPM): 64 µg/mL (≈ 214 µM)

CCOc1ccc2ccccc2c1C(=O)N[C@@H]1C(=O)N2[C@@H]1SC(C)(C)[C@@H]2C(=O)O [nafcillin]
MIC ([2]; read-out: MIC (µg ml-1) / Naf): > 64 µg/mL
MIC ([3]; read-out: MIC (µg ml-1) / Naf): > 64 µg/mL

CN[C@H](CC(C)C)C(=O)N[C@H]1C(=O)N[C@@H](CC(N)=O)C(=O)N[C@H]2C(=O)N[C@H]3C(=O)N[C@H](C(=O)N[C@H](C(=O)O)c4cc(O)cc(O)c4-c4cc3ccc4O)[C@H](O)c3ccc(c(Cl)c3)Oc3cc2cc(c3O[C@@H]2O[C@H](CO)[C@@H](O)[C@H](O)[C@H]2O[C@H]2C[C@](C)(N)[C@H](O)[C@H](C)O2)Oc2ccc(cc2Cl)[C@H]1O [vancomycin]
MIC [2, 6]: 2 µg/mL (≈ 1.38 µM)
MIC [3, 6]: 4 µg/mL (≈ 2.76 µM)

MnaA (Staphylococcus aureus)
Km [4]: 131 ± 21 µM
Km [5]: 411 ± 57 µM

Reference: publication PMC4856313 (PLoS Pathogens, 2016)
